Data: publication PMC3038857, “Using Nuclear Receptor Activity to Stratify Hepatocarcinogens” (PLoS ONE, 2011)
Like-named read-outs stand apart in the source and are kept apart here.

Experiments:
[1] = molecular target: T1, PPARG (peroxisome proliferator-activated receptor gamma) (Homo sapiens, UniProt P37231); assay: ATG_PPARg_TRANS: Factorial reporter gene assay (HepG2); type: cell-based
T1 construct: expressed in transfected cells; host or cells: HepG2
T1 sequence (P37231 1-505): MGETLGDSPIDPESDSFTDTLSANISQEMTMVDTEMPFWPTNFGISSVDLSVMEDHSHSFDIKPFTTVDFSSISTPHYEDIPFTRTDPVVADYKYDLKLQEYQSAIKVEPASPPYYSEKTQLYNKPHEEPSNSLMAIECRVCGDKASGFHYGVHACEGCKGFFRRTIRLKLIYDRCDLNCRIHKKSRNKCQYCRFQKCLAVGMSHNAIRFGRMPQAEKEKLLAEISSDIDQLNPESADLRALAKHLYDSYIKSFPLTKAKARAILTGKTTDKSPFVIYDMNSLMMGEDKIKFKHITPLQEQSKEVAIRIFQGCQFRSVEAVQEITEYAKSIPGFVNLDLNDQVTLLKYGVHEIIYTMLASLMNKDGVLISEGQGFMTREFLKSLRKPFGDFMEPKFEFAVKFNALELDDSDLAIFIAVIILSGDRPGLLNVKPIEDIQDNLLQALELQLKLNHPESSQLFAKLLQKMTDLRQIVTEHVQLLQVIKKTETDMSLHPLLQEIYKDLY
Protocol: (§1) A multiple reporter transcription unit (MRTU) library consisting of 48 transcription factor binding sites was transfected into the HepG2 human liver hepatoma cell line. In addition to the cis-acting reporter genes (CIS), a modification of the approach was used to generate a trans-system (TRANS) with a mammalian one-hybrid assay consisting of an additional 25 MRTU library reporting the activity of nuclear receptor super-family members. […] These assays were performed by Attagene Inc. (Morrisville NC) under contract to EPA.
(§2) In addition to the cis-acting reporter genes (CIS), a modification of the approach was used to generate a trans-system (TRANS) with a mammalian one-hybrid assay consisting of an additional 25 MRTU library reporting the activity of nuclear receptor super-family members. […] Chemicals were then tested in the CIS and TRANS assays at seven concentrations starting at the MTC and followed by three-fold serial dilutions. These assays were performed by Attagene Inc. (Morrisville NC) under contract to EPA. Detailed description of the methods, data and analysis methods for this dataset will be presented in a separate publication.

[2] = system: CYP2B6; assay: CLZD_CYP2B6: Change in expression of CYP2B6 (primary human hepatocytes); type: cell-based; details: 24 hr
Protocol: (§3) This is a collection of multiplexed gene expression assays focused on Phase I and II xenobiotic metabolizing enzymes and transporters. Human primary cell cultures were treated with chemicals at 5 concentrations (0.004-40 [drawing 42] M) for 6, 24 and 48 hr. Concentration- and time-response profiles of chemicals were measured by the expression of key nuclear receptor target genes, activities of CYP1A enzymes (EROD), and cell morphology. Fourteen gene targets were monitored by quantitative nuclease protection assay including: six representative cytochrome P-450 genes, four hepatic transporters, three Phase II conjugating enzymes, and one endogenous metabolism gene involved in cholesterol synthesis. The target genes associated with nuclear receptor pathways are as follows: [drawing 43] and [drawing 44] with [drawing 45]; [drawing 46] , [drawing 47] , [drawing 48] , [drawing 49] , [drawing 50] and [drawing 51] with [drawing 52]; [drawing 53] , [drawing 54] , [drawing 55] and [drawing 56] with [drawing 57]; [drawing 58] with [drawing 59]; and [drawing 60] with [drawing 61] . Assays were run in primary human hepatocyte cultures by CellzDirect Invitrogen Inc. (Durham, NC), in collaboration with EPA.
(§4) Multiplexed Gene Expression in Human Primary Hepatocytes: This is a collection of multiplexed gene expression assays focused on Phase I and II metabolic enzymes and transporters. […] Fourteen gene targets were monitored by quantitative nuclease protection assay: six representative cytochrome P450 genes, four hepatic transporters, three Phase II conjugating enzymes, and one endogenous metabolism gene involved in cholesterol synthesis. Cells were exposed at 5 concentrations (0.004-40 µM) for 6, 24 or 48 hr. Gene targets are sentinels for five nuclear receptor signaling pathways: AhR, CAR, PXR, FXR, and PPARα. All gene are associated with nuclear receptor pathways: CYP1A1 and CYP1A2 with AHR; ABCB1, ABCG2, CYP2B6, CYP2C9, CYP2C19 and UGT1A1 with CAR; CYP3A4, GSTA2, SLCO1B1 and SULT2A1 with PXR; HMGCS2 with PPARA; and ABCB11 with FXR. […] Detailed description of the methods, data and analysis methods for this dataset will be presented in a separate publication.

[3] = system: CYP3A4; assay: CLZD_CYP3A4: Change in expression of CYP3A4 (primary human hepatocytes); type: cell-based; details: 24 hr
Protocol: as §3, §4

[4] = system: Rat Liver; details: ref ToxRefDB, cited from earlier work
[5] = system: Rat Liver; details: ref ToxRefDB, cited from earlier work; remark: listed apart in the source
[6] = system: Rat Liver; details: ref ToxRefDB, cited from earlier work; remark: listed apart in the source
[7] = molecular target: T2, PXR (NR1I2) (Homo sapiens, UniProt O75469); assay: ATG_PXRE_CIS: Factorial reporter gene assay (HepG2); type: cell-based; design: endogenous in cells; host or cells: HepG2
T2 sequence (O75469 1-434): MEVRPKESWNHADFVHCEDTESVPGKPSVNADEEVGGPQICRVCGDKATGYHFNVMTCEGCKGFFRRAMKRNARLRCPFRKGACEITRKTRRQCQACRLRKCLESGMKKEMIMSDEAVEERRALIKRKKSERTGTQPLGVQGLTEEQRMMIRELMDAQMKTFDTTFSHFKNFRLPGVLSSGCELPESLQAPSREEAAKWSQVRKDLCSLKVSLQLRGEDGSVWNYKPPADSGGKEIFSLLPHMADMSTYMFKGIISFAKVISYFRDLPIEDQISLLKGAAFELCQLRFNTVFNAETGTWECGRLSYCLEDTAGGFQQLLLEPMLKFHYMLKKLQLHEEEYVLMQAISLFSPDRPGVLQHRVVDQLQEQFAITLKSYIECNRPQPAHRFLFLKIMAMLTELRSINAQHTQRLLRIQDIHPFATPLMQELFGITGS
Protocol: as §1, §2

[8] = molecular target: T2, PXR (NR1I2); assay: ATG_PXR_TRANS: Factorial reporter gene assay (HepG2); type: cell-based; design: endogenous in cells; host or cells: HepG2
Protocol: as §1, §2

[9] = system: Mouse Liver; details: ref ToxRefDB, cited from earlier work
[10] = system: Mouse Liver; details: ref ToxRefDB, cited from earlier work; remark: listed apart in the source
[11] = system: CYP1A1; assay: CLZD_CYP1A1: Change in expression of CYP1A1 (primary human hepatocytes); type: cell-based; details: 24 hr
Protocol: as §3, §4

[12] = molecular target: T2, PXR (NR1I2); assay: NVS_NR_hPXR: Human PXR Fluormone PXR (SXR) green (cell-free HTS); type: binding
Description: These are a collection of biochemical assays measuring binding constants and enzyme inhibition values. Chemicals were initially screened at a single concentration in duplicate wells at a concentration of 10 [drawing 63] M for cytochrome P-450 assays and 25 [drawing 64] M for all others. […] These assays were run by Caliper Life Sciences (Hanover, MD) under contract to EPA. Short assay descriptions are available at: http://www.caliperls.com/products/contract-research/in-vitro/.
Cell-free HTS Assays: A collection of biochemical assays measuring binding constants and enzyme inhibition values. […] These assays were run by Caliper Life Sciences (Hanover, MD) under contract to EPA. Short assay descriptions are available at http://www.caliperls.com/products/contract-research/in-vitro/. Values for all endpoints were imported into GeneData Screener (Basel, Switzerland) and normalised to solvent controls from the same plate as the tested compounds and expressed as percent of neutral control. Concentration-response curves were fit in GeneData Screener (Basel, Switzerland) Condeseo module using the Hill equation and AC50 values were determined. […] Detailed description of the methods, data and analysis methods for this dataset are described in a separate publication.

[13] = system: CYP1A2; assay: CLZD_CYP1A2: Change in expression of CYP1A2 (primary human hepatocytes); type: cell-based; details: 24 hr
Protocol: as §3, §4

[14] = mouse chronic study, liver, coded 6 / Inf, code not explained in table
[15] = rat chronic study, liver, coded 6 / 0, code not explained in table

SMILES | CLZD_CYP2B6_24 [2] | CLZD_CYP3A4_24 [3] | CHR_Rat_Liver_1_AnyLesion ([4]; chronic study, rat liver) | CHR_Rat_Liver_2_PreneoplasticLesion ([5]; chronic study, rat liver) | CHR_Rat_Liver_3_NeoplasticLesion ([6]; chronic study, rat liver) | ATG_PXRE_CIS ([7]; HepG2 reporter) | ATG_PXRE_CIS ([7]; HepG2) | other results
CC(COc1ccc(Oc2ccccc2)cc1)Oc1ccccn1 (centres unmarked) [r274] | 5.377 | 5.096 | 0 | 0 | 0 | 4.886 | – | ATG_PPARg_TRANS ([1]; HepG2 reporter): 4.42
CCSC(=O)N1CCCCCC1 [row 214] | – | – | – | – | – | – | 4.602 | CHR_Rat_Liver_1_AnyLesion ([4]; chronic rat study, liver): 0; CHR_Rat_Liver_2_PreneoplasticLesion ([5]; chronic rat study, liver): 0; CHR_Rat_Liver_3_NeoplasticLesion ([6]; chronic rat study, liver): 0; ATG_PXR_TRANS ([8]; HepG2): 4.208
O=C(Nc1ccccc1)Nc1cnns1 [chemical 298] | – | – | – | – | – | – | – | CHR_Mouse_Liver_1_AnyLesion [9, 14]: 6; CHR_Mouse_Liver_2_PreneoplasticLesion [10, 14]: 6; CHR_Rat_Liver_1_AnyLesion [4, 15]: 0; CHR_Rat_Liver_2_PreneoplasticLesion [5, 15]: 0; CHR_Rat_Liver_3_NeoplasticLesion [6, 15]: 0
COc1nc(C)nc(NC(=O)NS(=O)(=O)c2ccccc2CCC(F)(F)F)n1 [r267] | 5.398 | 5.396 | 0 | 0 | 0 | 4.328 | – | CLZD_CYP1A1_24 [11]: 5.399; NVS_NR_hPXR [12]: 4.423; CHR_Mouse_Liver_1_AnyLesion ([9]; chronic study, mouse liver): 6
COc1nc(C)nc(NC(=O)NS(=O)(=O)c2ccccc2CCC(F)(F)F)n1 [r268] | – | – | 0 | 0 | 0 | 4.509 | – | NVS_NR_hPXR [12]: 4.469; CHR_Mouse_Liver_1_AnyLesion ([9]; chronic study, mouse liver): 6
CCNc1nc(Cl)nc(NCC)n1 [r284] | 4.983 | – | 6 | 6 | 6 | 4.456 | – | ATG_PPARg_TRANS ([1]; HepG2 reporter): 4.398; CLZD_CYP1A1_24 [11]: 5.018; CLZD_CYP1A2_24 [13]: 5.016
COc1nc(C)nc(NC(=O)NS(=O)(=O)c2ccccc2OCCCl)n1 [chemical 307] | – | – | – | – | – | – | – | CHR_Mouse_Liver_1_AnyLesion [9, 14]: 6; CHR_Mouse_Liver_2_PreneoplasticLesion [10, 14]: 6; CHR_Rat_Liver_1_AnyLesion [4, 15]: 0; CHR_Rat_Liver_2_PreneoplasticLesion [5, 15]: 0; CHR_Rat_Liver_3_NeoplasticLesion [6, 15]: 0
Cc1nc(N(C)C)nc(OC(=O)N(C)C)c1C [r247] | 5.267 | – | – | – | – | – | 4.301 | CLZD_CYP1A2_24 [13]: 5.15
CCC/C(=N\OCC)C1=C(O)CC(CC(C)SCC)CC1=O (centres unmarked) [r283] | 5.082 | 4.556 | 6 | 6 | 0 | 4.62 | – | CHR_Mouse_Liver_1_AnyLesion ([9]; chronic study, mouse liver): 6; CHR_Mouse_Liver_2_PreneoplasticLesion ([10]; chronic study, mouse liver): 6
O=C(Nc1ccc([N+](=O)[O-])cc1Cl)c1cc(Cl)ccc1O [row 220] | – | – | – | – | – | – | 6.367 | ATG_PPARg_TRANS ([1]; HepG2): 6.252
COc1nc(NC(C)C)nc(NC(C)C)n1 [r255] | 4.907 | 5.515 | – | – | – | – | 4.553 | CLZD_CYP1A1_24 [11]: 5.078; CHR_Mouse_Liver_1_AnyLesion ([9]; mouse, chronic study): 6; CHR_Rat_Liver_1_AnyLesion ([4]; rat, chronic study): 0; CHR_Rat_Liver_2_PreneoplasticLesion ([5]; rat, chronic study): 0; CHR_Rat_Liver_3_NeoplasticLesion ([6]; rat, chronic study): 0
Cc1nn(-c2cc(NS(C)(=O)=O)c(Cl)cc2Cl)c(=O)n1C(F)F [r287] | 5.329 | 5.471 | 0 | 0 | 0 | 4.409 | – | ATG_PPARg_TRANS ([1]; HepG2 reporter): 4.444; CHR_Mouse_Liver_1_AnyLesion ([9]; chronic study, mouse liver): 6; ATG_PXR_TRANS ([8]; HepG2 reporter): 4.469
COc1nc(C)nc(NC(=O)NS(=O)(=O)c2ccccc2CCC(F)(F)F)n1 [r266] | 5.694 | 5.037 | 0 | 0 | 0 | 4.377 | – | CHR_Mouse_Liver_1_AnyLesion ([9]; chronic study, mouse liver): 6
COc1cnc(OC)n2nc(NS(=O)(=O)c3c(OCC(F)F)cccc3C(F)(F)F)nc12 [r239] | 4.844 | 4.931 | – | – | – | – | 4.585 | CHR_Rat_Liver_1_AnyLesion ([4]; rat, chronic study): 6; CHR_Rat_Liver_2_PreneoplasticLesion ([5]; rat, chronic study): 0; CHR_Rat_Liver_3_NeoplasticLesion ([6]; rat, chronic study): 0
COC(=O)c1c(C(F)F)nc(C(F)(F)F)c(C2=NCCS2)c1CC(C)C [chemical 297] | – | – | – | – | – | – | – | CHR_Mouse_Liver_1_AnyLesion [9, 14]: 6; CHR_Mouse_Liver_2_PreneoplasticLesion [10, 14]: 6; CHR_Rat_Liver_1_AnyLesion [4, 15]: 6; CHR_Rat_Liver_2_PreneoplasticLesion [5, 15]: 0; CHR_Rat_Liver_3_NeoplasticLesion [6, 15]: 0
CCCOC/C(=N\c1ccc(Cl)cc1C(F)(F)F)n1ccnc1 [chemical 315] | – | – | – | – | – | – | – | CHR_Mouse_Liver_1_AnyLesion [9, 14]: 6; CHR_Mouse_Liver_2_PreneoplasticLesion [10, 14]: 6; CHR_Rat_Liver_1_AnyLesion [4, 15]: 6; CHR_Rat_Liver_2_PreneoplasticLesion [5, 15]: 6; CHR_Rat_Liver_3_NeoplasticLesion [6, 15]: 0
N#CSCSC#N [row 206] | 5.076 | – | – | – | – | – | 5.699 | NVS_NR_hPXR [12]: 5.324
